Laboratory results: US20150093335A1, “CELL-TARGETED MAGNETIC NANO-MATERIAL AND BIOMEDICAL USES THEREOF” (Institute of Geology and Geophysics, Chinese Academy of …, priority 2012, published 2015)
Counter-ions that a name gives are not always drawn.

Tests used:
[1] = test system: U87MG human glioma; assay: 4.7T MRI of in-situ glioma; assay type: in vivo, nude mouse; settings: 0.1 mmol/kg tail vein, scanned 2 hours, glioma about 1-2 mm
Protocol: 10^6 U87MG human glioma cells (purchased from ATCC, cultivated at Nanjing KeyGEN BioTECH development Ltd.) are inoculated onto the cerebral cortex of a nude mouse by in-situ penetration through the cranium and its tympanic membrane slightly off the median line of the cerebrum. Magnetic resonance imaging is conducted after about 3-4 days. The nude mouse is anesthetized by respiratory anesthesia and an intravenous needle is detained in tail vein. The mouse is put into a 4.7T MRI system and stays in stationary state in the course of magnetic resonance scanning. The commercialized Gd-DTPA contrast agent (magnevist, produced by Bayer Corp.) is first injected through tail vein as reference (injection dosage: 0.1 mmol/kg) and is scanned continuously for 2 hours in the magnetic resonance chamber. After the Gd-DTPA is completely metabolized and excreted, human H-subunit magnetoferritin is injected through tail vein (injection dosage: 20 mg Fe/kg mouse weight) and is scanned continuously for 3 hours. […]
Purified human H-subunit ferritin is partially or totally denatured using denaturant such as guanidine hydrochloride (1-7 M) or urea (2-8 M) etc. such that the subunits are partially or totally depolymerized. […] Protein quantification is conducted using BCA protein quantification reagent kit. The number of Gd atoms encapsulated in a single protein molecule is measured using ICP-MS. […]

[2] = Longitudinal (r1) and transversal relaxivity measurement of gadolinium materials, 4.7T MRI; assay type: physicochemical; settings: per gadolinium concentration 0-1 mM
From the text: Gd contrast agents in clinical use can enhance the signal intensity of the lesion area during T1-weighted magnetic resonance imaging, thus showing a bright area. Since human naked eye is more sensitive to bright matters, these contrast agents can better meet the needs of human naked eye. But Gd contrast agents in clinical use have no targeting feature and have a low relaxation rate, thus failing to meet the needs for early diagnosis of diseases such as tumors. In the present invention, a tumor-targeted ferritin shell is used, and in the cavity thereof a gadolinium-iron nano-material is formed by biomimetic mineralization. By using purified human H-subunit ferritin as a template, a ferrous salt, a gadolinium salt and oxidant hydrogen peroxide are added into a solution of recombinant human ferritin, controlling the pH at 8.5 and the temperature at 65° C. […] The numbers of iron atoms and gadolinium atoms are measured through inductively coupled plasma mass spectrometry. The longitudinal relaxivity (r1) and transversal relaxivity (r2) of the material are measured using a 4.7T magnetic resonance imaging system. […]

[3] = test system: NCI-H460 lung cancer; assay: Treatment experiment on lung cancer in vivo

O=C([O-])CN(CCN(CC(=O)[O-])CC(=O)O)CCN(CC(=O)[O-])CC(=O)O.[Gd+3] [Gd-DTPA]
T1-weighted MRI signal intensity of the glioma area after injection [1]: no evident change
longitudinal relaxivity r1 [2]: about 5.9 mM^−1S^−1

COc1cccc2c1C(=O)c1c(O)c3c(c(O)c1C2=O)C[C@@](O)(C(=O)CO)C[C@@H]3O[C@H]1C[C@H](N)[C@H](O)[C@H](C)O1 [doxorubicin hydrochloride]
tumor volume difference versus PBS control group ([3]; 8 days after administration, doxorubicin 3 mg/kg every 3 days): minute difference
average tumor inhibition rate ([3]; tumor weights, doxorubicin 3 mg/kg tail vein every 3 days, 15 days, 3 mice per group): 23%
